# Patent publication US6225336A, “Compounds having [2.2.1] bicyclo skeleton” (Shionogi & Co., Ltd., priority 1997, dated 2001)
# What was measured:
# PGD2 Receptor [1] = molecular target: T1, PGD2 Receptor (Homo sapiens, UniProt Q13258); assay: Binding to PGD2 Receptor (human platelet membrane fraction, [3H]PGD2); conditions: 5 nM [3H]PGD2, pH 7.4, 4° C., 90 min, read-out: Inhibitory activity IC50
# T1 construct: endogenous in cells; host or cells: washed human platelets from a healthy volunteer
# T1 sequence (Q13258 1-359): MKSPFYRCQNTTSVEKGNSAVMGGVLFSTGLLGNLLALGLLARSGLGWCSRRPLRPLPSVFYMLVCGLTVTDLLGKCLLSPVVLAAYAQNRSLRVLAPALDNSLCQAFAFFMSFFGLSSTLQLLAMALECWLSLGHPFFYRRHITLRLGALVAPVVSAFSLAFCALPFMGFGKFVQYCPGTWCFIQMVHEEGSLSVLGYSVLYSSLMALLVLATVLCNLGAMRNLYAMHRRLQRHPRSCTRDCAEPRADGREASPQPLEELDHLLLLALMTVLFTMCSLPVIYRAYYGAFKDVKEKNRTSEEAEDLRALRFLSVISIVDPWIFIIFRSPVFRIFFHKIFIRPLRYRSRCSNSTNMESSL
# Procedure: (1) Preparation of Human Platelet Membrane Fraction
# Blood was collected using a plastic syringe containing 3.8% sodium citrate from the vein of healthy volunteers (adult male and female), then put into a plastic test tube and mixed by slow-reversion. The sample was then centrifuged at 1800 rpm. for 10 min at room temperature, and the supernatant containing PRP (platelet-rich plasma) was collected. The PRP was re-centrifuged at 2300 rpm, for 22 min at room temperature to obtain platelets. The platelets were homogenized using a homogenizer (Ultra-Turrax) followed by centrifugation 3 times at 20,000 rpm, 10 min at 4° C. to obtain a platelet membrane fraction. After protein determination, the membrane fraction was adjusted to 2 mg/ml and preserved in a refrigerator at -80° C. until using for the binding test.
# (2) Binding to PGD2 Receptor.
# To a binding-reaction solution (50 mM Tris/HCl, pH 7.4, 5 mM MgCl2) (0.2 ml) were added the human platelet membrane fraction (0.1 mg) and 5 nM [^3 H ]PGD2 (115 Ci/mmol), and the mixture was reacted at 4° C. for 90 min. After the reaction, the mixture was filtered through a glass fiber filter paper and washed several times with cooled physiologic saline, then the radioactivity retained on the filter paper was measured. The specific-binding ratio was calculated by subtracting the non-specific binding ratio which is the radio activity similarly measured in the presence of 10 μM PGD2 from the total binding. The inhibitory activity of each compound was expressed as the concentration required for 50% inhibition (IC50), which was determined by depicting a substitution curve by plotting the binding ratio (%) in the presence of each compound, where the binding ratio in the absence of a test compound is 100%.
# Hartley male guinea pig = assay: Nasal Blockage Model (intranasal pressure of OVA-sensitized guinea pigs); format: in vivo; conditions: 30 mg/kg orally 60 min before antigen exposure; intranasal pressure AUC 0-30 min vs vehicle
# Procedure: Experiment Using Nasal Blockage Model
# Recently, It has been paid an attention to a theory that PGD2 is one of causative substances of nasal blockage caused by allergic rhinitis, and proposed to develop an inhibitor of PGD2 biosynthesis or an antagonist to the PGD2 receptor as a drug reducing nasal blockage. Thus, as to the compounds of the present, invention. the anti-nasal blockage effect was evaluated by measuring the intranasal pressure of guinea pigs.
# A 1% ovalbumin (OVA) solution was treated with an ultrasonic nebulizer to obtain an aerosol. Hartley male guinea pig was sensitized by inhaling the aerosol twice each or 10 min at one-week interval. Seven days after the sensitization, the guinea pig was exposed to an antigen to initiate the reaction. Briefly, the trachea of he guinea pig was incised under the anesthesia with pentobarbital (30 mg/kg. i.p.) and cannulas were inserted into the trachea at the pulmonary and nasal cavity sides. […] After arresting the spontaneous respiration of the guinea pig with Gallamin (2 mg/kg, i.v.), 4 ml/time of air was supplied to the snout side with an artificial respirator at the frequency of 70 times/min, and the atmospheric pressure required for the aeration was measured by using a transducer fitted at the branch. The measured pressure was used as a parameter of the nasal cavity resistance. […]
# PGD2 Receptor [2] = molecular target: T1, PGD2 Receptor; assay: Antagonistic Activity Against PGD2 Receptor Using Human Platelet (cAMP increased by PGD2); format: cell-based; conditions: inhibition of cAMP increase by 0.1 μM PGD2 in washed human platelets
# Procedure: Experiment 2 Evaluation of Antagonistic Activity Against PGD2 Receptor Using Human Platelet
# Peripheral blood was collected from a healthy volunteer using a syringe in which 1/9 volume of a citric acid/dextrose solution was previously added. The sample was subjected to centrifugation at 180 g for 10 min to obtain the supernatant (PRP: platelet rich plasma). The resultant PRP was washed 3 times with a washing buffer and the number of platelet was counted with a micro cell counter. A suspension adjusted to contain the platelets at a final concentration of 5×10^8 /ml was warmed at 37° C., then subjected to the pre-treatment with 3-isobutyl-1-methylxanthine (0.5 mM) for 5 min. To the suspension was added a test compound diluted at various concentration, and 10 minutes later, 0.1 μM PGD2 was added to induce the reaction 2 minutes later, hydrochloric acid was added to terminate the reaction. The platelet was destroyed with an ultrasonic homogenizer. After centrifugation, the cAMP in the supernatant was determined by radioimmunoassay. PGD2 receptor antagonism of a drug was evaluated as follows: the inhibition rate regarding cAMP increased by the addition of PGD2 was determined at each concentration, and the concentration of the (drug required for 50% inhibition (IC50) was calculated. The results are shown below.
# TXA2 Receptor = molecular target: T2, TXA2 Receptor (Homo sapiens, UniProt P21731); assay: Binding to TXA2 Receptor (human platelet membrane fraction, [3H](+)-S-145 sodium salt); conditions: 2 nM [3H](+)-S-145 sodium salt, pH 7.4, room temperature, 90 min, read-out: Inhibitory activity to TXA2 Receptor: IC50
# T2 construct: The human platelet fraction was prepared in accordance with Experiment 1 (1); from tissue; host or cells: human platelets from blood of healthy volunteers (membrane fraction)
# T2 sequence (P21731 1-343): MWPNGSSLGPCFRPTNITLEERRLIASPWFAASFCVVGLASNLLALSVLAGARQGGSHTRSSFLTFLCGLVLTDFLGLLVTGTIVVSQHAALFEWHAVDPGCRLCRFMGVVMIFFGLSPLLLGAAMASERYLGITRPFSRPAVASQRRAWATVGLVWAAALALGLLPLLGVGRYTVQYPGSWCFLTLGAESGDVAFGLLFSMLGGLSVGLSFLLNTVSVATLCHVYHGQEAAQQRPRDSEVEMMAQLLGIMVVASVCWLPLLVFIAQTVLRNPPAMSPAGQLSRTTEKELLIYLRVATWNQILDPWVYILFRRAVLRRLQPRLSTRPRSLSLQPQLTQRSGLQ
# Procedure: (I) Preparation of Human Platelet Membrane Fraction
# The human platelet fraction was prepared in accordance with Experiment 1 (1).
# (2) Binding to TXA2 Receptor
# To a binding-reaction solution (50 mM Tris/HCl, pH 7.4. 10 mM MgCl2) (0.2 ml) were added the human platelet membrane fraction (0.05 mg) and 2 nM Sodium [^3 H](+)-(5Z)-7-[3-endo-[(phenylsulfonyl)aminol]bicyclo[2.2. 1]hept-2-exo-iy]heptenoate (Japanese Patent Publication (Kokoku) No.79060/1993, hereinafter referred to as (+)-S-145 sodium salt) (26.4 Ci/mmol), and the mixture was reacted at room temperature for 90 min. After the reaction, the resultant mixture was filtered through a glass fiber filter paper and washed several times with cooled physiological saline, then the radioactivity retained on the filter paper was measured. The specific-binding ratio was calculated by subtracting the non-specific binding ratio (the radio activity similarly determined in the presence of 10 μM (+)-S-145 sodium salt) from the total binding. The inhibitory activity of each compound was expressed as the concentration required for 50% inhibition (IC50), which was determined by depicting a substitution curve by plotting the binding ratio (%) in the presence of each compound, where the binding ratio in the absence of a test compound is 100%.
Compound,IC50 (PGD2 Receptor [1]),Inhibitory Rate (%) (Hartley male guinea pig),IC50 (PGD2 Receptor [2]),IC50 (TXA2 Receptor)
"O=C(O)CCC/C=C\C[C@H]1[C@@H]2CC[C@@H](C2)[C@@H]1NC(=O)c1csc2ccc(O)cc12 [Compd. 1, (5Z)-7-{(1R, 2S, 3S, 4S)-3-(5-Hydroxybenzo[b]thiophen-3-carbonylamino)-bicyclo[2.2. 1]hept-2-yl}-5-heptenoic acid]",9.6 nM,74%,3.9 nM,
"O=C(O)CCC/C=C\C[C@H]1[C@@H]2CC[C@@H](C2)[C@@H]1NC(=O)c1ccsc1 [Compd. 2, (5Z)-7-{(1R, 2S, 3S, 4S)-3-(Thiophen-3-carbonylamino)-bicyclo[2.2.1]hept-2-yl}-5-heptenoic acid]",31 nM,,360 nM,
"O=C(O)CCC/C=C\C[C@H]1[C@@H]2CC[C@@H](C2)[C@@H]1NC(=O)c1cccc2ccsc12 [Compd. 3, (5Z)-7-{(1R, 2S, 3S, 4S)-3-(Benzo[b]thiophen-7-carbonylamino)-bicyclo[2.2. 1]hept-2-yl}-5-heptenoic acid]",87 nM,,22 nM,
"O=C(O)CCC/C=C\C[C@H]1[C@@H]2CC[C@@H](C2)[C@@H]1NC(=O)c1csc2ccccc12 [Compd. 4, (5Z)-7-{(1R, 2S, 3S, 4S)-3-(Benzo[b]thiophen-3-carbonylamino)-bicyclo[2.2. 1]hept-2-yl}-5-heptenoic acid]",8.2 nM,,41 nM,3800 nM
"O=C(O)CCC/C=C\C[C@H]1[C@@H]2CC[C@@H](C2)[C@@H]1NC(=O)c1csc2ccc(F)cc12 [Compd. 5, (5Z)-7-{(1R, 2S, 3S, 4S)-3-(5-Fluorobenzo[b]thiophen-3-carbonylamino)-bicyclo[2.2. 1]hept-2-yl}-5-heptenoic acid]",57 nM,,34 nM,
O=C(O)CCC/C=C\C[C@H]1[C@@H]2CC[C@@H](C2)[C@@H]1NC(=O)c1csc2cc(O)ccc12 [Compd. 6],180 nM,,8.2 nM,
"O=C(O)CCC/C=C\C[C@@H]1[C@H]2CC[C@H](C2)[C@H]1NC(=O)c1csc2ccc(O)cc12 [Compd. 18, (5Z)-7-{(1S, 2R, 3R, 4R)-3-(5-Hydroxybenzo[b]thiophen-3-carbonylamino)-bicyclo[2.2. 1]hept-2-yl}-5-heptenoic acid]",5.5 nM,,> 1000 nM,1800 nM
